Values after ≈ are worked out from the molar mass of the structure shown. Read-outs that look alike come from different tables or passages of the source.
Columns and labels:
Type in all cases: physicochemical
[1] = Solubility in 7/3 v/v toluene/MeOH
[2] = Conversion to hydrate risk: slurry in 5% SLS aqueous solution seeded with 5% hydrate seeds, PXRD; conditions: 20 mg/mL in 5% SLS aqueous solution, 24 hours
Description: Slurry experiments in water containing 5% SLS were used to assess the risk of form conversion during wet granulation. Typical wet granulation conditions include drying at 60 to 70° C. for 1.5 to 2 hours.
Slurries containing 20 mg/mL of either Form 1 or Form 2 in 5% sodium lauryl sulfate (SLS) aqueous solution were seeded with 5% hydrate seeds and monitored for form change with PXRD over 24 hours at room temperature and at 80° C.

[3] = Slurry form-conversion experiments in organic solvents (relative thermodynamic stability)
Text: Form 1 and Form 2 are monotropically related.
This is evidence that Form 1 is more thermodynamically stable than Form 2.

[4] = Storage stability (processability assessment), 12 months
Text: There is a risk of Form 2 conversion to hydrate at the typical wet granulation temperature when seeds of hydrate are present.

[5] = 40° C./75% relative humidity (RH)

Structure (SMILES)	solubility ([1]; 25 °C, organic solvent or mixture, 25 °C, read-out: Solubility) [µg/mL]	solubility ([1]; 40 °C, organic solvent or mixture, 40 °C, read-out: Solubility) [µg/mL]	solubility ([1]; 60 °C, organic solvent or mixture, 60 °C, read-out: Solubility) [µg/mL]	Hydrate peak growth (PXRD) ([2]; 80° C.)	Hydrate peak growth (PXRD) ([2]; room temperature)	Relative thermodynamic stability ([3]; Form 1 versus Form 2, monotropically related)	Form after slurry ([3]; slurried in MeOH, 3 weeks, room temperature)	Physical and chemical stability on storage [4, 5]	Physical and chemical stability on storage ([4]; 55° C.)	solubility ([1]; 25 °C) [µg/mL]	solubility ([1]; 40 °C) [µg/mL]	solubility ([1]; 60 °C) [µg/mL]	Form conversion in slurry seeded with Form 1 ([3]; 2-Me-THF, Ethyl Acetate, MeOH or MeOH/toluene (70:30 v/v), 50° C., seeded with Form 1 at 14 days, 28 days total)	Form conversion in slurry ([3]; Ethyl Acetate and Isopropyl Acetate, 25° C., after 28 days)	Form conversion in competitive slurry ([3]; ~10 mg each of Form 1 and Form 2 in 1 mL MeOH, 50° C., after 4 days)	Relative thermodynamic stability ([3]; in aqueous solutions)
COc1cc(Nc2nn([C@H]3COCC[C@@H]3C#N)cc2C(N)=O)cc(F)n1 [Form 1, 1-[(3R,4S)-4-cyanotetrahydropyran-3-yl]-3-[(2-fluoro-6-methoxy-4-pyridyl)amino]pyrazole-4-carboxamide]	3400 (≈ 9.44 mM)	6600 (≈ 18.3 mM)	12500 (≈ 34.7 mM)	No hydrate peak growth observed	No hydrate peak growth observed	more stable than Form 2	remained as Form 1	physically and chemically stable	physically and chemically stable	–	–	–	–	–	–	–
COc1cc(Nc2nn([C@H]3COCC[C@@H]3C#N)cc2C(N)=O)cc(F)n1 [Form 2, 1-[(3R,4S)-4-cyanotetrahydropyran-3-yl]-3-[(2-fluoro-6-methoxy-4-pyridyl)amino]pyrazole-4-carboxamide]	–	–	–	no hydrate peak growth was observed	hydrate peak growth was observed	–	–	physically and chemically stable	physically and chemically stable	4700 (≈ 13 mM)	9300 (≈ 25.8 mM)	15600 (≈ 43.3 mM)	full or conversion to Form 1	Partial conversion	full conversion to Form 1	–
COc1cc(Nc2nn([C@H]3COCC[C@@H]3C#N)cc2C(N)=O)cc(F)n1 [Hydrate, 1-[(3R,4S)-4-cyanotetrahydropyran-3-yl]-3-[(2-fluoro-6-methoxy-4-pyridyl)amino]pyrazole-4-carboxamide]	–	–	–	–	–	–	–	–	–	–	–	–	–	–	–	most stable form in aqueous solutions

Reference: patent publication US12018020B2, “Crystalline forms of 1-[(3R,4S)-4-cyanotetrahydropyran-3-yl]-3-[(2-fluoro-6-methoxy-4-pyridyl)amino]pyrazole-4-carboxamide” (Intervet Inc., priority 2018, dated 2024)
